Assay: xn = mol fraction of the nth substance listed
Conditions: 100 kPa, Liquid; for speed of sound: Frequency=2 MHz, Linear variable-path acoustic interferometer; for mass density: Vibrating tube method

CCOCCO [2-ethoxyethan-1-ol] + OCc1ccccc1
Conditions	mass density, 298.15 K [kg/m3]	mass density, 303.15 K [kg/m3]	mass density, 308.15 K [kg/m3]	mass density, 313.15 K [kg/m3]	mass density, 318.15 K [kg/m3]	speed of sound, 298.15 K [m/s]	speed of sound, 308.15 K [m/s]
x2 = 0	925.36	920.72	916.11	911.47	906.9	1301.4	1274.8
x2 = 0.0793	936.7	931.63	926.88	922.19	917.52	1320	1291
x2 = 0.1593	947.73	942.59	937.61	932.97	928.22	1339	1308
x2 = 0.2401	958.4	953.27	948.33	943.6	938.75	1358	1325
x2 = 0.3215	968.73	963.72	958.87	954.15	949.14	1378	1342
x2 = 0.4037	978.84	973.92	969.17	964.42	959.34	1399	1360
x2 = 0.4866	988.63	983.76	979.06	974.35	969.28	1419	1379
x2 = 0.5703	998.17	993.33	988.65	984.06	979.07	1440	1398
x2 = 0.6547	1007.45	1002.6	997.97	993.39	988.67	1460	1417
x2 = 0.7398	1016.35	1011.53	1006.89	1002.53	998.04	1480	1437
x2 = 0.8257	1024.9	1020.21	1015.71	1011.52	1007.24	1499	1456
x2 = 0.9125	1033.23	1028.71	1024.47	1020.44	1016.45	1517	1476

CCCCOCCO [2-butoxyethan-1-ol] + OCc1ccccc1
Conditions	mass density, 298.15 K [kg/m3]	mass density, 303.15 K [kg/m3]	mass density, 308.15 K [kg/m3]	mass density, 313.15 K [kg/m3]	mass density, 318.15 K [kg/m3]	speed of sound, 298.15 K [m/s]	speed of sound, 308.15 K [m/s]
x2 = 0	896.46	892.22	887.97	883.7	879.42	1305	1275
x2 = 0.1042	909.14	904.89	900.6	896.2	891.93	1329	1296
x2 = 0.2038	921.94	917.61	913.28	908.82	904.49	1352	1317
x2 = 0.299	934.77	930.34	925.95	921.47	917.11	1373	1337
x2 = 0.3902	947.51	942.98	938.56	934.1	929.63	1394	1356
x2 = 0.4776	960.11	955.52	951.03	946.55	942.13	1413	1375
x2 = 0.5614	972.47	967.75	963.31	958.86	954.41	1433	1394
x2 = 0.6418	984.52	979.84	975.34	970.91	966.56	1452	1412
x2 = 0.7191	996.35	991.7	987.22	982.84	978.55	1470	1430
x2 = 0.7933	1007.85	1003.3	998.89	994.59	990.4	1486	1446
x2 = 0.8648	1019.13	1014.73	1010.48	1006.26	1002.24	1503	1463
x2 = 0.9336	1030.15	1025.98	1021.88	1017.81	1013.89	1519	1479

OCc1ccccc1 [benzenemethanol] + COCCO
Conditions	mass density, 298.15 K [kg/m3]	mass density, 303.15 K [kg/m3]	mass density, 308.15 K [kg/m3]	mass density, 313.15 K [kg/m3]	mass density, 318.15 K [kg/m3]	speed of sound, 298.15 K [m/s]	speed of sound, 308.15 K [m/s]
x1 = 0.0979	974.27	969.06	963.98	958.77	953.4	1359	1319
x1 = 0.1928	985.51	980.26	975.04	969.7	964.14	1377	1337
x1 = 0.2847	995	989.74	984.55	979.32	973.82	1395	1354
x1 = 0.3739	1003.23	998.13	992.96	987.81	982.44	1413	1371
x1 = 0.4604	1010.46	1005.46	1000.42	995.25	990.02	1430	1388
x1 = 0.5443	1016.87	1011.91	1006.93	1001.91	996.67	1447	1405
x1 = 0.6258	1022.61	1017.7	1012.79	1007.81	1002.65	1463	1421
x1 = 0.7049	1027.69	1022.84	1018.04	1013.09	1007.91	1478	1437
x1 = 0.7818	1032.17	1027.39	1022.66	1017.74	1012.63	1493	1452
x1 = 0.8565	1035.9	1031.28	1026.79	1022.07	1017.05	1507	1467
x1 = 0.9292	1038.94	1034.49	1030.32	1025.92	1021.35	1521	1482
x1 = 1	1041.05	1037.15	1033.32	1029.46	1025.59	1534.5	1496

From the NIST ThermoML archive (doi:10.1016/j.jct.2015.08.040)
